Laboratory results published in patent publication US11608343B2, “Substituted pyrimido[5,4-d]pyrimidines as HER2 inhibitors” (Boehringer Ingelheim International GmbH, priority 2020, dated 2023).

Experiments:
Type in all cases: cell-based
HER2 YVMA = biological target: T1, HER2 YVMA (Homo sapiens, UniProt P04626, INS775YVMA); test: pHER2 (ERBB2) YVMA assay: phosphorylation of HER2 YVMA at Tyr1221/1222 in HEK cells (AlphaScreen Surefire); settings: doxycycline induced, 4 h with compound
T1 construct: expressed in transfected cells; host or cells: human HEK cells, retroviral transduction, doxycycline-inducible expression
T1 sequence (P04626 with tags, fused parts or gaps INS775YVMA): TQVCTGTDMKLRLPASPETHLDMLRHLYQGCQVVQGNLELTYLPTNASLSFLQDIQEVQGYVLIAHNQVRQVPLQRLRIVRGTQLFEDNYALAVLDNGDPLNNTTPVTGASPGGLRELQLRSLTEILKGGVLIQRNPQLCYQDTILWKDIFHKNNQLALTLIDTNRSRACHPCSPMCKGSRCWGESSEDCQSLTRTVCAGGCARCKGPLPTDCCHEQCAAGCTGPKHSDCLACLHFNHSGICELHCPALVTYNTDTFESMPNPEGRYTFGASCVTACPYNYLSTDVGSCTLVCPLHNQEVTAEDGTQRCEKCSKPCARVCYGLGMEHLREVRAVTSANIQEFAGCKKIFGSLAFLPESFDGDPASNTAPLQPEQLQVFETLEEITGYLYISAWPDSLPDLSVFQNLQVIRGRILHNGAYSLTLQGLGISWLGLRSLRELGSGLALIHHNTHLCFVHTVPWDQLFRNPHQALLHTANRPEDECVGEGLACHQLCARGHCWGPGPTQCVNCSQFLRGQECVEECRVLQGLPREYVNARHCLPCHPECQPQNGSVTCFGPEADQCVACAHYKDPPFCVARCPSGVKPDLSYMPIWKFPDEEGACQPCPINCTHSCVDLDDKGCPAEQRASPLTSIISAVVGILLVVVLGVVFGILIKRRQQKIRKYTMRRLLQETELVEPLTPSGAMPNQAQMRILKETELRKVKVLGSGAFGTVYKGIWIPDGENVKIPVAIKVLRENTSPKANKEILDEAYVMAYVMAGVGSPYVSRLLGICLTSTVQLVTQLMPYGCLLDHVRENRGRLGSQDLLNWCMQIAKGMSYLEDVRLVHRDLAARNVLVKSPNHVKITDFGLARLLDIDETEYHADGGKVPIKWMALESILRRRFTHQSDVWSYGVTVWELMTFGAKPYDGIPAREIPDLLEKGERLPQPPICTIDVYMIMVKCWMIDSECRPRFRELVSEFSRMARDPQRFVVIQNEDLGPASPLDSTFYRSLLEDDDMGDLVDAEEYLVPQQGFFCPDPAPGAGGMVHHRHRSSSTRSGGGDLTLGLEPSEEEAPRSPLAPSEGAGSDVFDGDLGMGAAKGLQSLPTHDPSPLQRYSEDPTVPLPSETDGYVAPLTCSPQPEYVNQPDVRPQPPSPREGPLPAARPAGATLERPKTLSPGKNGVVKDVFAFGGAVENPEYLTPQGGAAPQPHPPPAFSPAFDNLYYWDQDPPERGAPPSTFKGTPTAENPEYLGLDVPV
Method: For the assay, HEK HER2 YVMA cells are seeded in MEM medium with 10% FBS. 4 hours prior to compound addition, HER2 YVMA expression is induced using 1 μg/mL Doxycycline. […] Subsequently, 60.000 cells/well in 60 μL are added. Cells are incubated with compound for 4 h at 37° C. […] The mixture is incubated at a temperature of 20-25° C. with shaking (700 rpm) for 20 min. After centrifugation, 4 μL of the lysate are transferred to Proxiplates. […] Plates are shaken for 1 min (1400 rpm) and incubated for 2 h at a temperature of 20-25° C. in the dark. […] Plates are shaken for 1 min (1400 rpm) and incubated for 2 h at a temperature of 20-25° C. in the dark. Plates are subsequently analyzed using an Envision reader platform. […] IC50 values are computed from these values in the MEGASTAR IC50 application using a 4 parametric logistic model. […] The results of the assay are provided as IC50 values.

EGFR wild type (WT) = biological target: T2, EGFR wild type (WT) (Homo sapiens, UniProt P00533); test: pEGFR assay: phosphorylation of EGFR at Tyr1068 in HEK cells expressing EGFR WT (AlphaScreen Surefire); settings: 4 h with compound
T2 construct: expressed in transfected cells; host or cells: human HEK cells (ATCC CRL-1573), retroviral transduction
T2 sequence (P00533 25-1210): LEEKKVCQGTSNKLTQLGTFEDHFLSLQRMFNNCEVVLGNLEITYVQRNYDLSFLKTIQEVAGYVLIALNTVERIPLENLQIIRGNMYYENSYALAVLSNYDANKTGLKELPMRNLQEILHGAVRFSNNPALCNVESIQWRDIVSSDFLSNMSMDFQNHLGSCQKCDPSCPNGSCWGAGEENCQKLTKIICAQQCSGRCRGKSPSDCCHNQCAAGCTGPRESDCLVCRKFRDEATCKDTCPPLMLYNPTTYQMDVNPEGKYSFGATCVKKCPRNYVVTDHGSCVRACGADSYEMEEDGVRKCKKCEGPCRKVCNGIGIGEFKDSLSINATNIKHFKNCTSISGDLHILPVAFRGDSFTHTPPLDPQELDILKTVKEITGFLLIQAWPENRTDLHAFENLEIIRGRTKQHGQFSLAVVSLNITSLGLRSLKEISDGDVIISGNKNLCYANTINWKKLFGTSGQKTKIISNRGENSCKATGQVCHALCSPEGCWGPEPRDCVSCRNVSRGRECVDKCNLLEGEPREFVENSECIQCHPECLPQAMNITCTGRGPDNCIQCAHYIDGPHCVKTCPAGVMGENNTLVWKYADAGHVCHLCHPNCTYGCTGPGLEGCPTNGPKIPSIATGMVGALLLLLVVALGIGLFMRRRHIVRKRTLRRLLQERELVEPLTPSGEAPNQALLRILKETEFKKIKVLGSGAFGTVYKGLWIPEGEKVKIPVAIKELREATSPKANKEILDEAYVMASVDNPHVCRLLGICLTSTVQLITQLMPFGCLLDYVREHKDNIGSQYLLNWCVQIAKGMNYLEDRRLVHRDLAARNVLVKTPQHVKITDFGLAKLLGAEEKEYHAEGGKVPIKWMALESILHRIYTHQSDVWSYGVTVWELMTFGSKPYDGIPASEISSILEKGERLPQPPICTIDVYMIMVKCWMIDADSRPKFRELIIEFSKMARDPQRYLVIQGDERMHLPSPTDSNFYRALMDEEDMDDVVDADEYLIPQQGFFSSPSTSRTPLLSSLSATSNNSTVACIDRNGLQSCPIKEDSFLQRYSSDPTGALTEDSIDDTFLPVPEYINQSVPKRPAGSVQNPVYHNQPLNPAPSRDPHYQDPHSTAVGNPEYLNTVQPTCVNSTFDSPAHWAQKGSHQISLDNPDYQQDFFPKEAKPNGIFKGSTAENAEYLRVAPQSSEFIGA
Method: This assay quantifies the phosphorylation of EGFR at Tyr1068 and is used to measure the inhibitory effect of compounds on the transgenic EGFR wild type (WT) protein expressed in HEK cells.
Transduced cells are selected using puromycin. p-EGFR Tyr1068 is determined using the AlphaScreen Surefire pEGF Receptor (Tyr1068) Assay (PerkinElmer, TGRERS). For the assay, HEK EGFR WT cells are seeded in MEM medium with 10% FBS. […] Subsequently, 60.000 cells/well in 60 μL are added. Cells are incubated with compound for 4 h at 37° C. […] The mixture is incubated at a temperature of 20-25° C. with shaking (700 rpm) for 20 min. After centrifugation, 4 μL of the lysate are transferred to Proxiplates. […] Plates are shaken for 1 min (1400 rpm) and incubated for 2 h at a temperature of (20-25° C.) in the dark. […] Plates are shaken for 1 min (1400 rpm) and incubated for 2 h at a temperature of (20-25° C.) in the dark. Plates are subsequently analyzed using an Envision reader platform. […] IC50 values are computed from these values in the MEGASTAR IC50 application using a 4 parametric logistic model.
This cellular phospho-EGFR (pEGFR) compound dose-response assay quantifies the phosphorylation of EGFR at Tyr1068 in HEK cells expressing EGFR WT. The results of the assay are provided as IC50 values.

[1] = system: NCI-H2170 (HER2 wild type) cells; test: Tumor cell line proliferation assay, NCI-H2170 (HER2 wild type), CellTiter-Glo; settings: Homo sapiens, 72 h, read-out: GI50 NCI H-2170 HER2 wt amp.
Method: (§1) For proliferation assays, NCI-H2170 (HER2 wild type), NCI-H2170 HER2 YVMA and EGFR WT dependent A431 cells are used. NCI-H2170 HER2 YVMA or NCI-H2170 cells are seeded into 96-well plates at 750 cells/60 μL in growth media (RPMI ATCC+10% FCS, +Penicillin/Streptomycin). […] Compounds are added by using a HP D3000 Digital Dispenser one day after plating the cells. All treatments are performed in technical triplicates. Treated cells are incubated for 72 h at 37° C. with 5% CO2. CellTiter-Glo® Luminescent Cell Viability Assay (Promega) is performed and chemoluminescence is measured by using the multilabel Plate Reader VICTOR X4. The raw data are imported into and analyzed with the Boehringer Ingelheim proprietary software MegaLab (curve fitting based on the program PRISM, GraphPad Inc.).

[2] = system: NCI-H2170 HER2 YVMA cells; test: Tumor cell line proliferation assay, NCI-H2170 HER2 YVMA, CellTiter-Glo; settings: Homo sapiens, 72 h, read-out: GI50 NCI H-2170 HER2 YVMA
Excerpt: HER2 YVMA Tumor Cell Line Model Generation and Proliferation Assays
Homology-directed genome engineering is employed to insert a 12 nucleotide sequence encoding YVMA into Exon 20 of the genomic HER2 locus in NCI-H2170 cells. […] The DNA template containing the HER2 exon 20 YVMA insertion variant was obtained from GenScript. PCR followed by Sanger sequencing is used to confirm the presence of the 12-nucleotide insertion in HER2 Exon 20 resulting in the YVMA amino acid duplication.
as §1

[3] = system: EGFR WT dependent A431 cells; test: Tumor cell line proliferation assay, EGFR WT dependent A431 cells, CellTiter-Glo; settings: Homo sapiens, A-431, 72 h, read-out: GI50 A431 EGFR wt amp.
Method: as §1

Ba/F3 cells HER2 WT = test: Ba/F3 proliferation assay, HER2 WT, CellTiter-Glo; settings: Mus musculus, BaF3, 72 h
Method: (§2) Ba/F3 Cell Model Generation and Proliferation Assays
(§3) Plasmids containing HER2 mutants and EGFR WT were obtained from GeneScript. To generate EGFR/HER2-dependent Ba/F3 models, Ba/F3 cells are transduced with retroviruses containing vectors that harbor EGFR WT, HER2 WT or HER2 mutants (YVMA). Platinum-E cells (Cell Biolabs) are used for retrovirus packaging. Retrovirus is added to Ba/F3 cells. To ensure infection, 4 μg/mL polybrene is added and cells are spin-infected. Infection efficiency is confirmed by measuring GFP-positive cells using a cell analyzer. Cells with an infection efficiency of 10% to 20% are further cultivated and puromycin selection with 1 μg/mL is initiated. As a control, parental Ba/F3 cells are used to assess the selection status. Selection is considered successful when parental Ba/F3 cells cultures die. To evaluate the transforming potential of HER2 mutations, the growth medium is no longer supplemented with IL-3. Ba/F3 cells harboring the empty vector are used as a control. A switch from IL-3 to EGF is performed for Ba/F3 cells expressing EGFR WT known for its dependency on EGF ligand. Approximately ten days before conducting the experiments, puromycin is left out. For proliferation assays (data in tables 10 and 12), Ba/F3 cells are seeded into 96-well plates at 5×10^3 cells/100 μL in growth media. Compounds are added by using a HP D3000 Digital Dispenser. All treatments are performed in technical triplicates. Treated cells are incubated for 72 h at 37° C. with 5% CO2. A CellTiter-Glo® Luminescent Cell Viability Assay (Promega) is performed and chemoluminescence is measured by using the multilabel Plate Reader VICTOR X4. The raw data are imported into and analyzed with the Boehringer Ingelheim proprietary software MegaLab (curve fitting based on the program PRISM, GraphPad Inc.).

[4] = system: Ba/F3 cells HER2 mutants (YVMA); test: Ba/F3 proliferation assay, HER2 YVMA, CellTiter-Glo; settings: Mus musculus, BaF3, 72 h
Method: as §2, §3

[5] = system: Ba/F3 cells expressing EGFR WT; test: Ba/F3 proliferation assay, EGFR WT (EGF dependent), CellTiter-Glo; settings: Mus musculus, BaF3, EGF instead of IL-3, 72 h, read-out: GI50 BAF3 EGF dep.
Method: as §2, §3

How did the IC50 (HER2 YVMA) turn out when `C=CC(=O)NC1CCN(c2ncc3ncnc(Nc4ccc(Oc5ccn6ccnc6c5)c(C)c4)c3n2)CC1` [Example I-12] was run?
Its IC50 is 16 nM.

What about the IC50 (EGFR wild type (WT)) of the same compound?
Its IC50 is 230 nM.

What about the GI50 [1] of the same compound?
The GI50 was 8 nM.

What about the GI50 [2] of the same compound?
The GI50 was 71 nM.

And the GI50 [3]?
Its GI50 is greater than 5000 nM.

And the GI50 (Ba/F3 cells HER2 WT)?
Its GI50 is 2 nM.

And the GI50 [4]?
The GI50 was 18 nM.

What about the GI50 [5] of the same compound?
Its GI50 is 1750 nM.

For `C=CC(=O)NC1CCN(c2ncc3ncnc(Nc4ccc(Oc5ccn6ncnc6c5)c(C)c4)c3n2)CC1` [Example I-11], which IC50 (HER2 YVMA) is on record?
The IC50 was 22 nM.

And the IC50 (EGFR wild type (WT))?
The IC50 was 521 nM.

What about the GI50 [1] of the same compound?
Its GI50 is 8 nM.

And the GI50 [2]?
The GI50 was 172 nM.

And the GI50 [3]?
Its GI50 is 1250 nM.

And the GI50 (Ba/F3 cells HER2 WT)?
The GI50 was 2 nM.

And the GI50 [4]?
Its GI50 is 28 nM.

And the GI50 [5]?
Its GI50 is greater than 2000 nM.

How did the IC50 (HER2 YVMA) turn out when `C=CC(=O)NC1CN(c2ncc3ncnc(Nc4ccc(Oc5ccn6ncnc6c5)c(C)c4)c3n2)C1` [Example I-09] was run?
Its IC50 is 26 nM.

And the IC50 (EGFR wild type (WT))?
The IC50 was 715 nM.

And the GI50 [1]?
Its GI50 is 9 nM.

What about the GI50 [2] of the same compound?
The GI50 was 75 nM.

What about the GI50 [3] of the same compound?
The GI50 was greater than 5000 nM.

And the GI50 (Ba/F3 cells HER2 WT)?
The GI50 was 1 nM.

And the GI50 [4]?
Its GI50 is 29 nM.

What about the GI50 [5] of the same compound?
Its GI50 is 2240 nM.

Which results are given for `C=CC(=O)NC1CCN(c2ncc3ncnc(Nc4ccc(Oc5ccc6c(c5)ncn6C)c(OC)c4)c3n2)CC1` [Example I-03]?
IC50 (HER2 YVMA): 20 nM; IC50 (EGFR wild type (WT)): 916 nM; GI50 [1]: 11 nM; GI50 [2]: 139 nM; GI50 [3]: > 5000 nM; GI50 (Ba/F3 cells HER2 WT): 2 nM; GI50 [4]: 38 nM; GI50 [5]: > 5000 nM

Which IC50 (HER2 YVMA) does the source give for `C=CC(=O)N1CC[C@H](Nc2ncc3ncnc(Nc4ccc(Oc5ccn6ncnc6c5)c(C)c4)c3n2)C1` [Example I-17] here?
Its IC50 is 2 nM.

What about the IC50 (EGFR wild type (WT)) of the same compound?
The IC50 was 94 nM.

What about the GI50 [1] of the same compound?
Its GI50 is 9 nM.

What about the GI50 [2] of the same compound?
The GI50 was 39 nM.

And the GI50 [3]?
Its GI50 is greater than 2000 nM.

And the GI50 (Ba/F3 cells HER2 WT)?
Its GI50 is 2 nM.

And the GI50 [4]?
The GI50 was 14 nM.

What about the GI50 [5] of the same compound?
Its GI50 is 1100 nM.

For `C=CC(=O)NC1CN(c2ncc3ncnc(Nc4ccc(Oc5ccc6c(c5)ncn6C)c(C)c4)c3n2)C1` [Example I-07], which IC50 (HER2 YVMA) is on record?
Its IC50 is 20 nM.

And the IC50 (EGFR wild type (WT))?
Its IC50 is 1170 nM.

What about the GI50 [1] of the same compound?
The GI50 was 17 nM.

And the GI50 [2]?
The GI50 was 73 nM.

And the GI50 [3]?
Its GI50 is greater than 5000 nM.

And the GI50 (Ba/F3 cells HER2 WT)?
Its GI50 is 3 nM.

And the GI50 [4]?
The GI50 was 42 nM.

And the GI50 [5]?
Its GI50 is 1500 nM.

`C=CC(=O)Nc1ccc2ncnc(Nc3ccc(OCc4cccc(F)c4)c(Cl)c3)c2c1` [Allitinib, reference compound] was tested. Which IC50 (HER2 YVMA) did it give?
Its IC50 is 3 nM.

And the IC50 (EGFR wild type (WT))?
Its IC50 is 1 nM.

And the GI50 [1]?
Its GI50 is 36 nM.

What about the GI50 [2] of the same compound?
The GI50 was 203 nM.

What about the GI50 [3] of the same compound?
The GI50 was 403 nM.

What about the GI50 [4] of the same compound?
The GI50 was 17 nM.

And the GI50 [5]?
Its GI50 is 31 nM.

What does the source list for `C#Cc1cc(Nc2ncnc3cnc(NC4CCN(C(=O)C=C)CC4)nc23)ccc1Oc1ccc2c(c1)ncn2C` [Example I-15]?
IC50 (HER2 YVMA): 12 nM; IC50 (EGFR wild type (WT)): 86 nM; GI50 [1]: 13 nM; GI50 [2]: 44 nM; GI50 [3]: 948 nM; GI50 (Ba/F3 cells HER2 WT): 2 nM; GI50 [4]: 18 nM; GI50 [5]: 425 nM
